# Assay results taken from article PMC6154558, “Discovery and Biological Evaluation of a Series of Pyrrolo[2,3-b]pyrazines as Novel FGFR Inhibitors” (Molecules : A Journal of Synthetic Chemistry and Natural …, 2017).
# Values joined by “and” are separate entries in the source; they are usually repeats but may differ in a detail not shown here. Equal entries are not always repeated.
# Assays:
# [1] = target: T1, FGFR1 (Homo sapiens, UniProt P11362); assay: ELISA kinase assay, FGFR1; format: biochemical; settings: for inhibition at 0.1 µM / FGFR1 Inhibition (%): 0.1 μM compound; for inhibition at 1 µM: 1 μM compound; for inhibition at 10 µM: 10 μM compound, mean from two separate experiments; for IC50: mean ± SD from two separate experiments; for inhibition at 0.01 µM: 0.01 μM compound; for FGFR1 Inhibition (%): 0.1 µM
# T1 construct: purchased Millipore
# Procedure: (§1) The effects of compounds on the activities of indicated (FGFR1 and c-Met) kinases were determined using enzyme-linked immunosorbent assays (ELISAs) with purified recombinant proteins. Briefly, 20 μg/mL poly (Glu, Tyr)4:1 (Sigma, St. Louis, MO, USA) was pre-coated in 96-well plates as a substrate. A 50-μL aliquot of 10 μmol/L ATP solution diluted in kinase reaction buffer (50 mmol/L HEPES (pH 7.4), 50 mmol/L MgCl2, 0.5 mmol/L MnCl2, 0.2 mmol/L Na3VO4, and 1 mmol/L DTT) was added to each well; 1 μL of various concentrations of compounds diluted in 1% DMSO (v/v) (Sigma) were then added to each reaction well. DMSO (1%, v/v) was used as the negative control. The kinase reaction was initiated by the addition of purified tyrosine kinase proteins FGFR1 (Millipore, Darmstadt, Germany) or c-Met (Millipore) diluted in 49 μL of kinase reaction buffer. After incubation for 60 min at 37 °C, the plate was washed three times with phosphate-buffered saline (PBS) containing 0.1% Tween 20 (T-PBS). Anti-phosphotyrosine (PY99) antibody (Sanra Cruz, Dallas, USA) (100 μL; 1:500, diluted in 5 mg/mL bovine serum albumin (BSA) T-PBS) was then added. After a 30-min incubation at 37 °C, the plate was washed three times, and 100 μL horseradish peroxidase-conjugated goat anti-mouse IgG (Calbiochem, Shanghai, China) (1:2000, diluted in 5 mg/mL BSA T-PBS) was added. The plate was then incubated at 37°C for 30 min and washed 3 times. A 100-μL aliquot of a solution containing 0.03% H2O2 and 2 mg/mL o-phenylenediamine in 0.1 mol/L citrate buffer (pH 5.5) was added. The reaction was terminated by the addition of 50 μL of 2 mol/L H2SO4 as the color changed, and the plate was analyzed using a multi-well spectrophotometer (SpectraMAX 190, Molecular Devices, Palo Alto, CA, USA) at 490 nm. […] (1) where IR, A490 and A490control are the inhibition rate, the absorbance value of the tested compound at 490 nm and the absorbance value of the negative control compound at 490 nm, respectively. The IC50 values were calculated from the inhibition curves in two separate experiments.
# [2] = target: T2, c-Met (Homo sapiens, UniProt P08581); assay: ELISA kinase assay, c-Met; format: biochemical; settings: for inhibition at 0.01 µM: 0.01 μM compound; for inhibition at 0.1 µM: 0.1 μM compound; for inhibition at 1 µM: 1 μM compound
# T2 construct: purchased Millipore
# Procedure: as §1
# T1 sequence (P11362 22-822): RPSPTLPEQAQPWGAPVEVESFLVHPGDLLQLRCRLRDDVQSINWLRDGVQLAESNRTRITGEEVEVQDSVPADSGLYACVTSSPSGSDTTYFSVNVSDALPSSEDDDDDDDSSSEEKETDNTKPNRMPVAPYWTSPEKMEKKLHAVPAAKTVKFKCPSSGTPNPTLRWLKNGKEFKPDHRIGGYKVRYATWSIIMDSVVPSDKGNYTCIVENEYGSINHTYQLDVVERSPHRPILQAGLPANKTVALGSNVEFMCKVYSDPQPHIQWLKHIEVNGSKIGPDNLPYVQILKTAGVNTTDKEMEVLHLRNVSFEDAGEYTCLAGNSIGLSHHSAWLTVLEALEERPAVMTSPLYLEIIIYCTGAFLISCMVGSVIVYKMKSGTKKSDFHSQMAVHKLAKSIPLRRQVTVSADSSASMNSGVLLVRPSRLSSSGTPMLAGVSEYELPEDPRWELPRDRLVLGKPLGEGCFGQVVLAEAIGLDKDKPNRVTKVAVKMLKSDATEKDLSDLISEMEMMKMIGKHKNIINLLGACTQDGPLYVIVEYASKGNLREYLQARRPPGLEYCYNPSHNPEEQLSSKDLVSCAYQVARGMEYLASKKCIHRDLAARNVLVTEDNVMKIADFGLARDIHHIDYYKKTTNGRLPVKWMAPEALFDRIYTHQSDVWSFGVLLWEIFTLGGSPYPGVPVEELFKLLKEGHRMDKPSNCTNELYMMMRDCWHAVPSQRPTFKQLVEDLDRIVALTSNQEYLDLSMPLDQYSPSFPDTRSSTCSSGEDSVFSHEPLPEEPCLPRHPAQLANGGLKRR
# T2 sequence (P08581 25-1390): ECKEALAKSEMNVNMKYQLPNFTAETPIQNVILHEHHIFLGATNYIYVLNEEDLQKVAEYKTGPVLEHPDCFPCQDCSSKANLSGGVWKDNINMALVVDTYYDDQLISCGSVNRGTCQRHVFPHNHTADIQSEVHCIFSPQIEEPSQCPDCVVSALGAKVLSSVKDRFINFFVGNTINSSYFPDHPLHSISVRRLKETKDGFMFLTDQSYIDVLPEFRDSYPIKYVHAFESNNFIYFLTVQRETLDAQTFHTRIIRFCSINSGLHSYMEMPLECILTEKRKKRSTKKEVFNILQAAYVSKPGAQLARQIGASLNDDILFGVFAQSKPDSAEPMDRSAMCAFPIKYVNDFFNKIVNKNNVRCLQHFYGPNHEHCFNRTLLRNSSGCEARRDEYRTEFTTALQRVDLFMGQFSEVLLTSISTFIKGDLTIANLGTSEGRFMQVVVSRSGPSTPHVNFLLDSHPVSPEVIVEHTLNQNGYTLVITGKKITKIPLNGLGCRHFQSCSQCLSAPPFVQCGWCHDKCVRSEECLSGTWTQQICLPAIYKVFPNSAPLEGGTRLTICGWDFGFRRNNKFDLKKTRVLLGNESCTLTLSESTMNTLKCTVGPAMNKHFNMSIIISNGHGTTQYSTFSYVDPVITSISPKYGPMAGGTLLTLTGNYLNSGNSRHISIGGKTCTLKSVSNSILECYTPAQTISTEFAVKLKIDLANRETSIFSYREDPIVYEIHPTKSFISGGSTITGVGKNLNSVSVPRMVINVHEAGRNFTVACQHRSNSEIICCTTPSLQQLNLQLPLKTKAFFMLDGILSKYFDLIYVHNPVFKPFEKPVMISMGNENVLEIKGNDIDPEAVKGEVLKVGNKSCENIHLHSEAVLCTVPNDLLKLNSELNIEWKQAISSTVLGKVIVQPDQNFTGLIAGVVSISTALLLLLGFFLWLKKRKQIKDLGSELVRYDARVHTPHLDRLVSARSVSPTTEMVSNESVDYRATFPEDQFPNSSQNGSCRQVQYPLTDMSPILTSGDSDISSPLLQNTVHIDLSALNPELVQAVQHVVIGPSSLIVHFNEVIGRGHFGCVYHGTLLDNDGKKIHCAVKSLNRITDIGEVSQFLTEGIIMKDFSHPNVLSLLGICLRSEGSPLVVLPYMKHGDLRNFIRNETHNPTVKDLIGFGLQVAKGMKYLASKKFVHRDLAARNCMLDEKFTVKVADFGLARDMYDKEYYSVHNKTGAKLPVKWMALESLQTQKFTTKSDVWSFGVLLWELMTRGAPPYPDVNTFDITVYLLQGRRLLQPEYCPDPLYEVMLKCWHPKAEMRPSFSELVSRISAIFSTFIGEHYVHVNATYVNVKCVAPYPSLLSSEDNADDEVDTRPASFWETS
Compound,inhibition at 0.1 µM [1] [%],inhibition at 1 µM [1] [%],inhibition at 10 µM [1] [%],inhibition at 0.01 µM [2] [%],inhibition at 0.1 µM [2] [%],inhibition at 1 µM [2] [%],IC50 [1],inhibition at 0.01 µM [1] [%],FGFR1 Inhibition (%) [1] [%]
"Cn1cc(-c2cnc3ccn(S(=O)(=O)c4ccc(Cl)c(Cl)c4)c3n2)cn1 [Compound 16, 5-((3,4-Dichlorophenyl)sulfonyl)-3-(1-methyl-1H-pyrazol-4-yl)-5H-pyrrolo[2,3-b]pyrazine]",13.6,34.8,74.5,,,,,,
"Cn1cc(-c2cnc3ccn(S(=O)(=O)c4cccc([N+](=O)[O-])c4)c3n2)cn1 [Compound 17, 3-(1-Methyl-1H-pyrazol-4-yl)-5-((3-nitrophenyl)sulfonyl)-5H-pyrrolo[2,3-b]pyrazine]",61.1,76.4,92.1,-5.4,-1.5,30.6,0.0859 ± 0.0212 µM,,
"Cn1cc(-c2cnc3ccn(S(=O)(=O)c4ccc([N+](=O)[O-])cc4)c3n2)cn1 [Compound 18, 3-(1-Methyl-1H-pyrazol-4-yl)-5-((4-nitrophenyl)sulfonyl)-5H-pyrrolo[2,3-b]pyrazine]",17.4,12.8,15.5,,,,,,
"Cn1cc(-c2cnc3ccn(S(=O)(=O)c4cccc(N)c4)c3n2)cn1 [Compound 19, 3-((3-(1-Methyl-1H-pyrazol-4-yl)-5H-pyrrolo[2,3-b]pyrazin-5-yl)sulfonyl)aniline]",34.7,57.5,82.2,,,,,,
"Cn1cc(-c2cnc3ccn(S(=O)(=O)c4ccc(N)cc4)c3n2)cn1 [Compound 20, 4-((3-(1-Methyl-1H-pyrazol-4-yl)-5H-pyrrolo[2,3-b]pyrazin-5-yl)sulfonyl)aniline]",31.8,24.2,42.4,,,,,,
"CC(=O)Nc1cccc(S(=O)(=O)n2ccc3ncc(-c4cnn(C)c4)nc32)c1 [Compound 21, N-(3-((3-(1-Methyl-1H-pyrazol-4-yl)-5H-pyrrolo[2,3-b]pyrazin-5-yl)sulfonyl)phenyl)acetamide]",44.7,50.9,79,,,,,,
"CCC(=O)Nc1cccc(S(=O)(=O)n2ccc3ncc(-c4cnn(C)c4)nc32)c1 [Compound 22, N-(3-((3-(1-Methyl-1H-pyrazol-4-yl)-5H-pyrrolo[2,3-b]pyrazin-5-yl)sulfonyl)phenyl)propionamide]",27.7,17.3,38.7,,,,,,
"CC(=O)n1cc(-c2cnc3ccn(S(=O)(=O)c4cccc([N+](=O)[O-])c4)c3n2)cn1 [Compound 23, 1-(4-(5-((3-Nitrophenyl)sulfonyl)-5H-pyrrolo[2,3-b]pyrazin-3-yl)-1H-pyrazol-1-yl)ethan-1-one]",< 40,58.8,,,,,,36.5,37.8
"CCC(=O)n1cc(-c2cnc3ccn(S(=O)(=O)c4cccc([N+](=O)[O-])c4)c3n2)cn1 [Compound 24, 1-(4-(5-((3-Nitrophenyl)sulfonyl)-5H-pyrrolo[2,3-b]pyrazin-3-yl)-1H-pyrazol-1-yl)propan-1-one]",< 40,60.9,,,,,,29.3,30.2
"CC(=O)Cn1cc(-c2cnc3ccn(S(=O)(=O)c4cccc([N+](=O)[O-])c4)c3n2)cn1 [Compound 25, 1-(4-(5-((3-Nitrophenyl)sulfonyl)-5H-pyrrolo[2,3-b]pyrazin-3-yl)-1H-pyrazol-1-yl)propan-2-one]",55.7,63.4,,5.5,5,14.1,0.045 µM and 0.0459 µM,32.8,
"CC(=O)c1ccc(-c2cnc3ccn(S(=O)(=O)c4cccc([N+](=O)[O-])c4)c3n2)cc1 [Compound 26, 1-(4-(5-((3-Nitrophenyl)sulfonyl)-5H-pyrrolo[2,3-b]pyrazin-3-yl)phenyl)ethan-1-one]",35.7,57.9,,,,,,,
"O=[N+]([O-])c1cccc(S(=O)(=O)n2ccc3ncc(-c4ccc(CO)cc4)nc32)c1 [Compound 27, (4-(5-((3-Nitrophenyl)sulfonyl)-5H-pyrrolo[2,3-b]pyrazin-3-yl)phenyl)methanol]",52.2,75.5,,1.1,8.4,30.1,0.113 µM and 0.114 µM,,
"COc1cccc2cc(-c3cnc4ccn(S(=O)(=O)c5cccc([N+](=O)[O-])c5)c4n3)[nH]c12 [Compound 28, 3-(7-Methoxy-1H-indol-2-yl)-5-((3-nitrophenyl)sulfonyl)-5H-pyrrolo[2,3-b]pyrazine]",34,62.4,,,,,,27.2,
